Source: patent publication US9051331B2, “Substituted dihydro benzocycloalkyloxymethyl oxazolopyrimidinones, preparation and use thereof” (Sanofi, priority 2009, dated 2015)

Legend:
[1] = biological target: rat or human mGluR2 receptor (UniProt Q14416); experiment: calcium ion (Ca2+) mobilization assay for allosteric modulators of mGluR2; format: cell-based; details: potency at approx. EC10 for glutamate; rat or human receptor not given; read-out: mGluR2 Potentiation (EC50)
Excerpt: A calcium ion (Ca^2) mobilization assay was used to identify and determine the activity for allosteric modulators of the rat or human mGluR2 receptor. Two formats were used: (1) examine the ability of glutamate to affect the potency of the modulator, by looking at a concentration-response curve of compound at different submaximal glutamate concentrations, and (2) look at the ability of the modulator to affect the potency of glutamate by looking at a concentration-response curve of glutamate at a maximal modulator concentration.
To monitor functional receptor response using calcium mobilization, a cell line stably expressing the rat or human mGluR2 receptor (normally coupled to its intracellular effector molecules through an inhibitory G-protein, Gαi) and Gα16, in a tetracycline-inducible vector was created. Gα16 can promiscuously couple Gs and Gi-coupled receptors to the inositol phospholipid signaling pathway by activating phospholipase Cβ resulting in a Ca^2+ signal (normally Gαq-mediated), that can be monitored with fluorescence plate readers such as FLIPR (Molecular Devices, Fluorescence Imaging Plate Reader), FDSS6000 (Hamamatsu, Fluorescence Drug Screening System), or FlexStation (Molecular Devices). The Ca^2+ mobilization assay was based on the detection of intracellular calcium changes using a selective, calcium-chelating dye: Fluo-3, Fluo-4, or Calcium-3. A large fluorescence intensity increase was observed upon calcium association with the dye. The dye was delivered either with the acetoxy-methyl ester, and washed off, or using a no-wash kit (Molecular Devices). Fluorescence signals stimulated by glutamate were recorded and used to generate the following pharmacological parameters: (1) the potency (EC50) of the compound(s) of interest at approx. EC 10 for glutamate at the rat and human mGluR2 receptors respectively, and (2) a fold-shift of the glutamate EC50 by maximal concentration of compound(s) of interest.

[2] = mice; cited from earlier work
[3] = compared to placebo; cited from earlier work
[4] = pretreatment, healthy human subjects; cited from earlier work
[5] = pentylenetetrazole- and picrotoxin-induced; cited from earlier work
[6] = DBA/2 mice; cited from earlier work
[7] = some animal models; cited from earlier work
[8] = rat; cited from earlier work

With `CCC(F)(F)c1cc(=O)nc2n1C[C@@H](COc1ccc3c(c1)CCCC3(C)C)O2` [Example 10, (S)-5-(1,1-Difluoro-propyl)-2-(5,5-dimethyl-5,6,7,8-tetrahydro-naphthalen-2-yloxymethyl)-2,3-dihydro-oxazolo[3,2-a]pyrimidin-7-one] the EC50 [1] was 0.015 µM.

For `Cc1c(OCc2cccc(-c3ccc(C(=O)O)cc3)c2)cc2c(c1C)C(=O)C(C1CCCC1)C2` (stereo not drawn) [biphenyl-indanone A], the “antipsychotic- and anxiolytic-like effects” value [2] is listed as “antipsychotic- and anxiolytic-like effects in mice”.

For `CC1(C)CCC(C)(C)c2cc(OC[C@@H]3Cn4ccc(=O)nc4O3)ccc21` [Example 4, (S)-2-(5,5,8,8-Tetramethyl-5,6,7,8-tetrahydro-naphthalen-2-yloxymethyl)-2,3-dihydro-oxazolo[3,2-a]pyrimidin-7-one], the EC50 [1] was 0.015 µM.

For `O=c1ccn2c(n1)O[C@H](COc1ccc3c(c1)CCC3)C2` [Comparative Ex. 1, (S)-2-(Indan-5-yloxymethyl)-2,3-dihydro-oxazolo[3,2-a]pyrimidin-7-one], the EC50 [1] was 0.445 µM.

`CCc1cn2c(nc1=O)O[C@H](COc1ccc3c(c1)CCCC3(C)C)C2` [Example 8, (S)-2-(5,5-Dimethyl-5,6,7,8-tetrahydro-naphthalen-2-yloxymethyl)-6-ethyl-2,3-dihydro-oxazolo[3,2-a]pyrimidin-7-one] gave an EC50 [1] of 0.017 µM.

In the case of `CSCC[C@H](N)C(=O)N[C@@]1(C(=O)O)CS(=O)(=O)[C@H]2[C@H](C(=O)O)[C@H]21` [LY2140023], the “positive and negative symptoms of schizophrenia” value [3] is given as “statistically significant improvements”.

Work on `CCc1cn2c(nc1=O)O[C@H](COc1ccc3c(c1)CCC3(C)C)C2` [Example 7, (S)-2-(1,1-Dimethyl-indan-5-yloxymethyl)-6-ethyl-2,3-dihydro-oxazolo[3,2-a]pyrimidin-7-one] yielded an EC50 [1] of 0.02 µM.

Molecule `CC1(C)CCCCc2cc(OC[C@@H]3Cn4ccc(=O)nc4O3)ccc21` [Example 3, (S)-2-(5,5-Dimethyl-6,7,8,9-tetrahydro-5H-benzocyclohepten-2-yloxymethyl)-2,3-dihydro-oxazolo[3,2-a]pyrimidin-7-one] has an EC50 [1] of 0.011 µM.

In the case of `CC1(C)CCCc2cc(OC[C@@H]3Cn4ccc(=O)nc4O3)ccc21` [Example 2, (S)-2-(5,5-Dimethyl-5,6,7,8-tetrahydro-naphthalen-2-yloxymethyl)-2,3-dihydro-oxazolo[3,2-a]pyrimidin-7-one], the EC50 [1] is reported as 0.019 µM.

For `CC1(C)CCc2cc(OC[C@H]3Cn4ccc(=O)nc4O3)ccc21` [Comparative Ex. 3, (R)-2-(1,1-Dimethyl-indan-5-yloxymethyl)-2,3-dihydro-oxazolo[3,2-a]pyrimidin-7-one], the EC50 [1] was 9.1 µM.

In the case of `O=c1ccn2c(n1)O[C@H](COc1ccc3c(c1)CCCC3)C2` [Comparative Ex. 2, (S)-2-(5,6,7,8-Tetrahydro-naphthalen-2-yloxymethyl)-2,3-dihydro-oxazolo[3,2-a]pyrimidin-7-one], the EC50 [1] is reported as 0.224 µM.

Work on `CCC(F)(F)c1cc(=O)nc2n1C[C@@H](COc1ccc3c(c1)CCC3(C)C)O2` [Example 9, (S)-5-(1,1-Difluoro-propyl)-2-(1,1-dimethyl-indan-5-yloxymethyl)-2,3-dihydro-oxazolo[3,2-a]pyrimidin-7-one] yielded an EC50 [1] of 0.064 µM.

For `N[C@@]1(C(=O)O)CC[C@H]2[C@H](C(=O)O)[C@H]21` [LY354740], the “effect on ketamine-disrupted working memory” value [4] is given as “attenuation of the disruptive effects” and the “effect on chemically induced seizures” value [5] is given as “attenuates pentylenetetrazole- and picrotoxin-induced seizures”.

`CC1(C)CCc2cc(OC[C@@H]3Cn4ccc(=O)nc4O3)ccc21` [Example 1, (S)-2-(1,1-Dimethyl-indan-5-yloxymethyl)-2,3-dihydro-oxazolo[3,2-a]pyrimidin-7-one] gave an EC50 [1] of 0.029 µM.

For `N[C@H](C(=O)O)c1ccc(C(=O)O)c(O)c1` [(S)-4-carboxy-3-hydroxyphenylglycine], the “protection against audiogenic seizures” value [6] is given as “protects against audiogenic seizures”.

In the case of `N[C@]1(C(=O)O)[C@H]2[C@@H](C[C@H]1OCc1ccc(Cl)c(Cl)c1)[C@]2(F)C(=O)O` [MGS0039], the antidepressant-like effects [7] is given as “dose-dependent antidepressant-like effects”.

For `N[C@@]1(C(=O)O)CO[C@H]2[C@H](C(=O)O)[C@H]21` [LY379268], the “effect on REM sleep and fast EEG” value [8] is listed as “suppresses rapid eye movement (REM) sleep and fast EEG”.
